What all share (type): functional, organism-based
Experiment [1] has as its system Candida albicans. Briefly: Growth inhibition of cellular yeast form of Candida albicans H317 at 5 mM after 2 hrs.
Experiment [2] has as its system Candida albicans. Kind of experiment: Anticandidal activity against Candida albicans H317 assessed as inhibition of transformation of organism from cellular yeast to filamentous form at 125 uM preincubated for 2 hrs before addition of fetal bovine serum measured after 22 hrs by phase contrast microscopy.
Experiment [3] deals with Candida albicans. Kind of experiment: Anticandidal activity against Candida albicans H317 assessed as inhibition of transformation of organism from cellular yeast to filamentous form at 250 uM preincubated for 2 hrs before addition of fetal bovine serum measured after 22 hrs by phase contrast microscopy.

Data on 2 compounds can be found in ChEMBL document CHEMBL1150106, “Carvone and perillaldehyde interfere with the serum-induced formation of filamentous structures in Candida albicans at substantially lower concentrations than those causing significant inhibition of growth” (J Nat Prod, 2002).

The source made the active and inactive calls. The calls are words filed in the database; no cut-off is given here.

As for `C=C(C)[C@@H]1CC=C(C=O)CC1`, the outcome in the experiment on Candida albicans [1] and in the experiment with Candida albicans [2] was Active.

`C=C(C)[C@H]1CC=C(C)C(=O)C1`: the result in the experiment on Candida albicans [1] and in the experiment with Candida albicans [3] was Active.
